Measured values: the supplement of paper PMC10883282

What was measured:
Experiment in all cases: relative viability vs DMSO control (72 h) (fraction); higher = more viable cells
[1] = test system: SW1353
Method in brief: (§1)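 Sarcoma cell lines were seeded in 384-well plates at densities set to reach 80–90% confluence. After 24 h, 2.5 µl of serially diluted compound was added (source plates 10 mM to 0.0002 mM), and plates were held 72 h at 37 °C, 5% CO2, with 0.1% DMSO vehicle and a 5 µM positive control. Relative viability came from ATPLite readings as percent growth, averaged over up to triplicate wells. Data were rescaled so full viability equals 1 and none equals 0.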

[2] = test system: KHOS-NP
Method in brief: as §1

[3] = test system: A204
Method in brief: as §1

[4] = test system: HT1080
Method in brief: as §1

[5] = test system: SK-ES-1
Method in brief: as §1

[6] = test system: SW982
Method in brief: as §1

[7] = test system: KHOS-240S
Method in brief: as §1

[8] = test system: RD-ES
Method in brief: as §1

[9] = test system: SW684
Method in brief: as §1

[10] = test system: SYO-1
Method in brief: as §1

[11] = test system: G401
Method in brief: as §1

[12] = test system: SW872
Method in brief: as §1

CCN(CCCOc1ccc2c(Nc3cc(CC(=O)Nc4cccc(F)c4)[nH]n3)ncnc2c1)CCOP(=O)(O)O [Barasertib]
Conditions	relative viability
[1], 0.00017 µM	0.955
[1], 0.00051 µM	0.972
[1], 0.00152 µM	0.939
[1], 0.00457 µM	0.985
[1], 0.01372 µM	0.867
[1], 0.04115 µM	0.841
[1], 0.1235 µM	0.842
[1], 0.3704 µM	0.812
[1], 1.111 µM	0.823
[1], 3.333 µM	0.82
[1], 10 µM	0.8463
[2], 0.00017 µM	1.03
[2], 0.00051 µM	1.03
[2], 0.00152 µM	1.04
[2], 0.00457 µM	1.048
[2], 0.01372 µM	1.05
[2], 0.04115 µM	1.072
[2], 0.1235 µM	1.08
[2], 0.3704 µM	1.09
[2], 1.111 µM	1.11
[2], 3.333 µM	1.12
[2], 10 µM	1.13
[3], 0.00017 µM	1.05
[3], 0.00051 µM	1.05
[3], 0.00152 µM	1.05
[3], 0.00457 µM	1.04
[3], 0.01372 µM	0.9872
[3], 0.04115 µM	0.907
[3], 0.1235 µM	0.859
[3], 0.3704 µM	0.813
[3], 1.111 µM	0.7
[3], 3.333 µM	0.441
[3], 10 µM	0.379
[4], 0.00017 µM	1.05
[4], 0.00051 µM	1.04
[4], 0.00152 µM	1.04
[4], 0.00457 µM	1.04
[4], 0.01372 µM	1.02
[4], 0.04115 µM	0.977
[4], 0.1235 µM	0.878
[4], 0.3704 µM	0.89
[4], 1.111 µM	0.9017
[4], 3.333 µM	0.895
[4], 10 µM	0.87
[5], 0.00017 µM	1.05
[5], 0.00051 µM	1.09
[5], 0.00152 µM	1.04
[5], 0.00457 µM	0.98
[5], 0.01372 µM	0.237
[5], 0.04115 µM	0.065
[5], 0.1235 µM	0.0636
[5], 0.3704 µM	0.0641
[5], 1.111 µM	0.061
[5], 3.333 µM	0.0649
[5], 10 µM	0.0658
[6], 0.00017 µM	1.06
[6], 0.00051 µM	1.03
[6], 0.00152 µM	1.05
[6], 0.00457 µM	1.05
[6], 0.01372 µM	1
[6], 0.04115 µM	0.713
[6], 0.1235 µM	0.5551
[6], 0.3704 µM	0.552
[6], 1.111 µM	0.589
[6], 3.333 µM	0.525
[6], 10 µM	0.468
[7], 0.00017 µM	1.04
[7], 0.00051 µM	1.02
[7], 0.00152 µM	1.03
[7], 0.00457 µM	1
[7], 0.01372 µM	0.978
[7], 0.04115 µM	0.9
[7], 0.1235 µM	0.794
[7], 0.3704 µM	0.759
[7], 1.111 µM	0.744
[7], 3.333 µM	0.736
[7], 10 µM	0.712
[8], 0.00017 µM	0.994
[8], 0.00051 µM	0.974
[8], 0.00152 µM	0.984
[8], 0.00457 µM	0.951
[8], 0.01372 µM	0.746
[8], 0.04115 µM	0.156
[8], 0.1235 µM	0.143
[8], 0.3704 µM	0.14
[8], 1.111 µM	0.131
[8], 3.333 µM	0.117
[8], 10 µM	0.127
[9], 0.00017 µM	1.11
[9], 0.00051 µM	1.11
[9], 0.00152 µM	1.15
[9], 0.00457 µM	1.15
[9], 0.01372 µM	1.12
[9], 0.04115 µM	1.04
[9], 0.1235 µM	1.06
[9], 0.3704 µM	1.11
[9], 1.111 µM	1.08
[9], 3.333 µM	0.977
[9], 10 µM	0.816
[10], 0.00017 µM	0.939
[10], 0.00051 µM	0.918
[10], 0.00152 µM	0.891
[10], 0.00457 µM	0.82
[10], 0.01372 µM	0.479
[10], 0.04115 µM	0.415
[10], 0.1235 µM	0.397
[10], 0.3704 µM	0.337
[10], 1.111 µM	0.319
[10], 3.333 µM	0.284
[10], 10 µM	0.251
[11], 0.00017 µM	0.961
[11], 0.00051 µM	0.998
[11], 0.00152 µM	0.996
[11], 0.00457 µM	0.97
[11], 0.01372 µM	0.897
[11], 0.04115 µM	0.798
[11], 0.1235 µM	0.777
[11], 0.3704 µM	0.8003
[11], 1.111 µM	0.799
[11], 3.333 µM	0.776
[11], 10 µM	0.677
[12], 0.00017 µM	1.01
[12], 0.00051 µM	1.01
[12], 0.00152 µM	0.9782
[12], 0.00457 µM	0.985
[12], 0.01372 µM	0.975
[12], 0.04115 µM	0.962
[12], 0.1235 µM	0.897
[12], 0.3704 µM	0.918
[12], 1.111 µM	0.912
[12], 3.333 µM	0.892
[12], 10 µM	0.8645
